Tests used:
[1] = test system: Mia PaCa-2 cells; assay: ATP assay (ATP depletion / cell viability) in Mia PaCa-2 cells; assay type: cell-based, human; details: Relative activity compare with β-lapachone in ATP depletion of Mia PaCa-2 cells
Protocol: (§1) In vitro anti-cancer activity of the compound were performed using ATP Assay Kit (Abcam, ab83355) to initially screen, and further performed using 7-day DNA assay.
(§2) Cell culture: endogenous NQO1 overexpressing human MIA PaCa-2 pancreactic and A549 NSCLC cancer cells were obtained (Bey, et al., 2007; Li, et al., 2011). Cancer cells were grown in DMEM with 5% FBS and Mycoplasma free, and cultured at 37° C. in a 5% CO2 95% air humidified atmosphere.
ATP assay: Cells were seeded into each well of a 96-well plate (15000 cells/well) 18 hours ahead of experiment. After aspiration of the media from each well, 100 μl drug-contained media was added instead, and further incubated for 2 hours. After incubation, 100 μl ATP assay kit mixture was added into every well. Following further shaking for 10 minutes with light proof, the data were collected by reading luminescence integrate 1 second per well.

[2] = test system: A549 cells; assay: Cell viability in A549 cells (7-day DNA assay); assay type: cell-based, human; details: relative to β-lapachone
Protocol: as §1, §2
DNA assay: Cells were seeded into each well of a 48-well plate (10000 cells/well) 24 hours ahead of experiment. After aspiration of the media from each well, 500 μl drug-contained media was added instead, and further incubated for 2 hours. Drugs were then removed, control growth medium was added, and cells were allowed to grow for an additional 7 days. Drugs were added to medium at a 1:1000 dilution immediately before administration to cells. DNA content (a measure of cell growth) was determined by fluoresence of the DNA dye Hoescht 33258 (Sigma), and read in a Cytofluor fluoresence plate reader. Data were expressed as relative growth with 6 repetitions.

IC50/IC50 (β-lapachone/Compoud) [1] | Structure (SMILES) | IC50/IC50 (β-lapachone/Compoud) [2]
<0.3 | CC(C)OC1=CC(=O)C(=O)c2cc(Br)ccc21 [Compound 1, 7-bromo-4-isopropoxynaphthalene-1,2-dione] | 
<0.3 | O=C1C=C(OC2CCCCC2)c2ccc(Br)cc2C1=O [Compound 2, 7-bromo-4-(cyclohexyloxy)naphthalene-1,2-dione] | 
<0.3 | O=C1C=C(OC2CCCCC2)c2ccc(Cl)cc2C1=O [Compound 5, 7-chloro-4-(cyclohexyloxy)naphthalene-1,2-dione] | 
<0.3 | CC(C)OC1=CC(=O)C(=O)c2cccc(Cl)c21 [Compound 6, 5-chloro-4-isopropoxynaphthalene-1,2-dione] | 
0.3~1 | CC(C)OC1=CC(=O)C(=O)c2cccc([N+](=O)[O-])c21 [Compound 7, 4-isopropoxy-5-nitronaphthalene-1,2-dione] | 
<0.3 | COc1cc2c(cc1OC)C(OC(C)C)=CC(=O)C2=O [Compound 8, 4-isopropoxy-6,7-dimethoxynaphthalene-1,2-dione] | 
<0.3 | CC(C)OC1=CC(=O)C(=O)c2cc3c(cc21)OCO3 [Compound 9, 8-isopropoxynaphtho[2,3-d][1,3]dioxole-5,6-dione] | 
<0.3 | Cc1cc(C)c2c(c1)C(=O)C(=O)C=C2OC(C)C [Compound 10, 4-isopropoxy-5,7-dimethylnaphthalene-1,2-dione] | 
<0.3 | CC(C)OC1=C(Br)C(=O)C(=O)c2ccccc21 [Compound 11, 3-bromo-4-isopropoxynaphthalene-1,2-dione] | 
<0.3 | CC(C)OC1=C(Br)C(=O)c2ccccc2C1=O [Compound 12, 2-bromo-3-isopropoxynaphthalene-1,4-dione] | 
<0.3 | CC(C)OC1=C(Cl)C(=O)C(=O)c2ccccc21 [Compound 13, 3-chloro-4-isopropoxynaphthalene-1,2-dione] | 
0.3~1 | CC(C)OC1=CC(=O)C(=O)c2c(Cl)cccc21 [Compound 14, 8-chloro-4-isopropoxynaphthalene-1,2-dione] | 
0.3~1 | O=C1C=C(OC2CCCCC2)c2cccc(Cl)c2C1=O [Compound 16, 8-chloro-4-(cyclohexyloxy)naphthalene-1,2-dione] | 
<0.3 | Cc1ccc(S(=O)(=O)Nc2cccc3c2C(=O)C(=O)C=C3OC(C)C)cc1 [Compound 17, N-(5-isopropoxy-7,8-dioxo-7,8-dihydronaphthalen-1-yl)-4-methylbenzenesulfonamide] | 
<0.3 | CC(C)OC1=CC(=O)C(=O)c2c(NC(=O)C(F)(F)F)cccc21 [Compound 19, 2,2,2-trifluoro-N-(5-isopropoxy-7,8-dioxo-7,8-dihydronaphthalen-1-yl)acetamide] | 
<0.3 | CC(C)OC1=CC(=O)c2cccc(NC(=O)C(F)(F)F)c2C1=O [Compound 20, 2,2,2-trifluoro-N-(7-isopropoxy-5,8-dioxo-5,8-dihydronaphthalen-1-yl)acetamide] | 
<0.3 | CC(C)OC1=CC(=O)c2cccc(NS(C)(=O)=O)c2C1=O [Compound 22, N-(7-isopropoxy-5,8-dioxo-5,8-dihydronaphthalen-1-yl)methanesulfonamide] | 
<0.3 | CC(C)OC1=CC(=O)C(=O)c2c(NS(=O)(=O)C(F)(F)F)cccc21 [Compound 23, 1,1,1-trifluoro-N-(5-isopropoxy-7,8-dioxo-7,8-dihydronaphthalen-1-yl)methanesulfonamide] | 
<0.3 | CC(=O)Nc1cccc2c1C(=O)C(=O)C=C2OC1CCCCC1 [Compound 25, N-(5-(cyclohexyloxy)-7,8-dioxo-7,8-dihydronaphthalen-1-yl)acetamide] | 
<0.3 | CS(=O)(=O)Nc1cccc2c1C(=O)C(=O)C=C2OC1CCCCC1 [Compound 26, N-(5-(cyclohexyloxy)-7,8-dioxo-7,8-dihydronaphthalen-1-yl)methanesulfonamide] | 
<0.3 | CC(=O)Nc1cccc2c1C(=O)C(=O)C=C2OCCCO [Compound 27, N-(5-(3-hydroxypropoxy)-7,8-dioxo-7,8-dihydronaphthalen-1-yl)acetamide] | 

IC50/IC50 (β-lapachone/Compoud) [1] | Structure (SMILES) | IC50/IC50 (β-lapachone/Compoud) [2]
<0.3 | CC(C)OC1=CC(=O)C(=O)c2c(N)cccc21 [Compound 29, 8-amino-4-isopropoxynaphthalene-1,2-dione] | 
<0.3 | CC(C)Nc1cccc2c1C(=O)C(OC(C)C)=CC2=O [Compound 31, 2-isopropoxy-8-(isopropylamino)naphthalene-1,4-dione] | 
<0.3 | CC(C)OC1=CC(=O)C(=O)c2cccc(Br)c21 [Compound 32, 5-bromo-4-isopropoxynaphthalene-1,2-dione] | 
<0.3 | CC(C)OC1=CC(=O)C(=O)c2ccc(NC(=O)OC(C)(C)C)cc21 [Compound 33, tert-butyl (8-isopropoxy-5,6-dioxo-5,6-dihydronaphthalen-2-yl)carbamate] | 
0.3~1 | O=C1C=C(OC2CCCCC2)c2cc(Cl)ccc2C1=O [Compound 35, 6-chloro-4-(cyclohexyloxy)naphthalene-1,2-dione] | 
<0.3 | CC(C)OC1=CC(=O)C(=O)c2ccc(Br)cc21 [Compound 36, 6-bromo-4-isopropoxynaphthalene-1,2-dione] | 
0.3~1 | O=C1C=C(OC2CCCCC2)c2cccc(O)c2C1=O [Compound 39, 4-(cyclohexyloxy)-8-hydroxynaphthalene-1,2-dione] | 
<0.3 | CC(C)OC1=CC(=O)C(=O)c2cccc(O)c21 [Compound 40, 5-hydroxy-4-isopropoxynaphthalene-1,2-dione] | 
<0.3 | CC(C)OC1=CC(=O)C(=O)c2cccc(OCCN3CCOCC3)c21 [Compound 42, 4-isopropoxy-5-(2-morpholinoethoxy)naphthalene-1,2-dione] | 
0.3~1 | CC(=O)Nc1cccc2c1C(=O)C(=O)C=C2OCCN1CCOCC1 [Compound 43, N-(5-(2-morpholinoethoxy)-7,8-dioxo-7,8-dihydronaphthalen-1-yl)acetamide] | 
0.3~1 | CC(=O)Nc1cccc2c1C(=O)C(OCCN1CCOCC1)=CC2=O [Compound 44, N-(7-(2-morpholinoethoxy)-5,8-dioxo-5,8-dihydronaphthalen-1-yl)acetamide] | 
1~2 | CC(=O)Nc1cccc2c1C(=O)C(OCCN(C)C)=CC2=O [Compound 45, N-(7-(2-(dimethylamino)ethoxy)-5,8-dioxo-5,8-dihydronaphthalen-1-yl)acetamide] | 
1~3 | COC1=CC(=O)C(=O)c2c(NC(C)=O)cccc21 [Compound 46, N-(5-methoxy-7,8-dioxo-7,8-dihydronaphthalen-1-yl)acetamide] | 
<0.3 | COC1=C(C)C(=O)C(=O)c2c(NC(C)=O)cccc21 [Compound 47, N-(5-methoxy-6-methyl-7,8-dioxo-7,8-dihydronaphthalen-1-yl)acetamide] | 
<0.3 | CCCCCCCCOC1=CC(=O)C(=O)c2c(NC(C)=O)cccc21 [Compound 51, N-(5-(octyloxy)-7,8-dioxo-7,8-dihydronaphthalen-1-yl)acetamide] | 
<0.3 | CCC(CC)OC1=CC(=O)C(=O)c2c(NC(C)=O)cccc21 [Compound 52, N-(7,8-dioxo-5-(pentan-3-yloxy)-7,8-dihydronaphthalen-1-yl)acetamide] | 
<0.3 | CCC(CC)OC1=CC(=O)C(=O)c2c(NS(C)(=O)=O)cccc21 [Compound 53, N-(7,8-dioxo-5-(pentan-3-yloxy)-7,8-dihydronaphthalen-1-yl)methanesulfonamide] | 
<0.3 | CCCCCCOC1=CC(=O)C(=O)c2c(NS(C)(=O)=O)cccc21 [Compound 54, N-(5-(hexyloxy)-7,8-dioxo-7,8-dihydronaphthalen-1-yl)methanesulfonamide] | 
1~2 | CCCCCCCCOC1=CC(=O)C(=O)c2c(NS(C)(=O)=O)cccc21 [Compound 55, N-(5-(octyloxy)-7,8-dioxo-7,8-dihydronaphthalen-1-yl)methanesulfonamide] | 
<0.3 | COCCOCCOCCOCCOC1=CC(=O)C(=O)c2c(NS(C)(=O)=O)cccc21 [Compound 56, N-(5-(2,5,8,11-tetraoxatridecan-13-yloxy)-7,8-dioxo-7,8-dihydronaphthalen-1-yl)methanesulfonamide] | 

Structure (SMILES) | IC50/IC50 (β-lapachone/Compoud) [1] | IC50/IC50 (β-lapachone/Compoud) [2]
CC(C)OC1=CC(=O)C(=O)c2cc(F)ccc21 [Compound 3, 7-fluoro-4-isopropoxynaphthalene-1,2-dione] | <0.3 | 
CC(C)OC1=CC(=O)C(=O)c2cc(Cl)ccc21 [Compound 4, 7-chloro-4-isopropoxynaphthalene-1,2-dione] | 1~2 | 1~2
CCCCOC1=CC(=O)C(=O)c2c(NC(C)=O)cccc21 [Compound 50, N-(5-butoxy-7,8-dioxo-7,8-dihydronaphthalen-1-yl)acetamide] | 1~2 | 
